# Literature values, collected in patent US20090062244A1, “PHARMACEUTICAL COMPOSITION” (priority 2007, published 2009).
# Conditions: room temperature
smiles,measurement,value
O=C(OOC(=O)c1ccccc1)c1ccccc1 [benzoyl peroxide],Solubility in 95% alcohol compared with absolute alcohol,several times lower
